Row | SMILES | melting point [°C]
1 | O=C(O)c1[nH]nc(C2CC2)c1Cl | 231 to 233
2 | C=CC(=O)NCc1cnc(C)s1 | 111 to 113
3 | Cc1cc(C(=O)N2CCCC(C)C2)ccc1N (centres undefined) | 128 to 130
4 | COc1ccc(N)cc1OCCN(C)C | 70 to 72
5 | O=C(O)CCCOc1ccc(Cl)cc1 | 114 to 116
6 | O=C(O)c1cccc(S(=O)(=O)N2CCOCC2)c1 | 198 to 200
7 | O=C(O)c1ccccc1-c1ncc(-c2ccccc2F)o1 | 184 to 186
8 | O=C1CCOc2c(Cl)ccc(Cl)c21 | 67 to 69
9 | N#CC1(c2cccc(Br)c2)CCOCC1 | 90 to 92
10 | O=Cc1c(F)cccc1N1CCCC1 | 41 to 43
11 | OC1CCCC1N1CCN(c2cccc(Cl)c2)CC1 (centres undefined) | 99 to 101
12 | NC(=S)c1ccoc1 | 103 to 105
13 | CCCc1cc(C(=O)O)[nH]n1 | 169 to 171
14 | CC(NC(=O)CC1CCCCC1)C(=O)O (centres undefined) | 156 to 158
15 | O=C(O)c1ccc(S(=O)(=O)Cl)cc1Br | 204 to 206
16 | CCCCS(=O)(=O)NCC(=O)O | 65 to 67
17 | CN(CC(=O)Nc1ccccc1Cl)C(=O)CCl | 115 to 117
18 | O=C(O)c1cnc(-c2ccc(Cl)s2)s1 | 235 to 237
19 | NS(=O)(=O)Cc1ccccc1Cl | 104 to 106
20 | OC(CC1COCCN1)c1ccccc1 (centres undefined) | 74 to 76
21 | COc1ccc(C)cc1NCCCC(=O)O | 99 to 101
22 | Cc1cc(Cl)cc(C)c1C=O | 39 to 41
23 | COc1ccc(C)cc1NC(=O)CNC(=O)CCl | 121 to 123
24 | CC(C)(C)c1ccc(CC(=O)O)cc1 | 76 to 78
25 | CC(C(=O)c1ccc(Br)cc1)N1C(=O)CCC1=O (centres undefined) | 171 to 173
26 | Cc1cc(S(=O)(=O)c2ccc(O)c(C)c2)ccc1O | 273 to 276

Row | SMILES | melting point [°C]
27 | CN1CCN(Cc2cccc(N)c2)CC1 | 78 to 80
28 | CC(=O)c1cnn(-c2ccccn2)c1C | 75 to 77
29 | Cc1cccc(C(=O)Nc2cccc(O)c2)n1 | 177 to 179
30 | Cc1nc(N)sc1Cc1cccc(F)c1 | 82 to 84
31 | O=C(O)c1ccccc1N1CCCCC1 | 59 to 61
32 | Cn1c(Cl)cnc1CC(N)=S | 142 to 144
33 | CCC(Oc1ccccc1C)C(=O)O (centres undefined) | 49 to 51
34 | O=C(O)Cc1cc(=O)n(C2CCS(=O)(=O)C2)[nH]1 (centres undefined) | 168 to 170
35 | Oc1cccc(Oc2ccncc2)c1 | 119 to 121
36 | Nn1cnnc1-c1ccccc1 | 115 to 117
37 | O=C1CC(c2ccccc2)N1 (centres undefined) | 107 to 109
38 | CCC1CCc2[nH]c(=O)c(C#N)cc2C1 (centres undefined) | 224 to 226
39 | Nc1ccc(-c2nccn2C(F)F)cc1 | 84 to 86
40 | NC(C(=O)O)c1cc(F)ccc1F (centres undefined) | 229 to 231
41 | O=C1NC(=O)C2(CCC2)N1 | 222 to 224
42 | CCn1c(C)cc(C(=O)O)c1C | < 17
43 | O=C(O)C1(c2ccc3c(c2)OCO3)CCCCC1 | 176 to 178
44 | Sc1ccc2ccccc2n1 | 173 to 176
45 | CN(c1ccccc1)S(=O)(=O)c1cccc(C(=O)O)c1 | 148 to 152
46 | Cc1ccc(C)c(S(=O)(=O)Nc2cccc(C(=O)O)c2)c1 | 217 to 219
47 | CN1CCN(C(=O)C2CCc3ccccc3N2)CC1 (centres undefined) | 113 to 115
48 | BrCc1cc(Br)cc2cccnc12 | 140 to 142
49 | COC(=O)CNc1ccc(Br)cn1 | 105 to 107
50 | N#Cc1cccc(S(=O)(=O)n2ccc(N)n2)c1 | 183 to 185
51 | CC(C)(Sc1ccc(Br)cc1)C(=O)O | 109 to 111
52 | N#Cc1ccc(N2CCC(N)CC2)nc1 | 70 to 72

Row | SMILES | melting point [°C]
53 | COc1ccccc1C(=O)NC(C(=O)O)C(C)C (centres undefined) | 128 to 129
54 | N#Cc1ccc2c(c1)CCO2 | 64 to 66
55 | COc1ccc(N)cc1CO | 115 to 117
56 | CCOC(=O)c1cnn(C)c1-c1ccccc1 | 59 to 61
57 | CS(=O)(=O)Nc1ccccc1C#N | 99 to 101
58 | Cc1c(Br)cc(S(=O)(=O)Cl)cc1C(=O)O | 167 to 169
59 | O=C(O)c1cnn(CCCl)c1 | 147 to 149
60 | N#Cc1cccnc1N1CCC(C(N)=O)CC1 | 177 to 179
61 | O=C(Nc1ccccc1)C1CCc2ccccc2N1 (centres undefined) | 124 to 126
62 | C=CS(=O)(=O)c1cc(F)cc([N+](=O)[O-])c1 | 90 to 92
63 | NCCNc1ncnc2sccc12 | 117 to 119
64 | COc1ccc(CC(=O)NO)cc1 | 159 to 161
65 | CC(C)(C)C1CCN(S(=O)(=O)Cl)CC1 | 69 to 71
66 | Cc1cc(O)c(C#N)c(C)n1 | 301 to 303
67 | CC(C)(C)OC(=O)N1CCC(OC(=O)c2cccc(N)c2)CC1 | 124 to 126
68 | c1ccc(NCC2CCCCC2)nc1 | 91 to 93
69 | O=C(O)Cc1csc(NC(=O)NC2CC2)n1 | 188 to 190
70 | COC(=O)C(O)c1cccc(O)c1 (centres undefined) | 124 to 126
71 | CC(C)(C)OC(=O)c1cccc(C(=O)O)c1 | 147 to 149
72 | O=C(O)CN1C(=O)COc2ccc(S(=O)(=O)Cl)cc21 | 159 to 161
73 | COc1ccc(-c2nnc(SCC(=O)O)o2)cc1 | 140 to 143
74 | Cn1ncc(C(=O)O)c1Br | 202 to 204
75 | CCOc1ccc(C(N)=O)cn1 | 179 to 181
76 | CC(C)(C)OC(=O)N1CCc2[nH]c(=O)c(C#N)cc2C1 | 239 to 241
77 | Nc1cc(-c2ccncc2)n[nH]1 | 194 to 196
78 | c1cc(C2CCNCC2)[nH]n1 | 146 to 148

Row | SMILES | melting point [°C]
79 | Cc1cc(NC(=O)c2ccccc2Cl)sc1C(=O)O | 223 to 225
80 | CN(c1ccc(C(=O)CCl)cc1)S(C)(=O)=O | 75 to 77
81 | Clc1nnc(Cl)c(Cl)n1 | 56 to 58
82 | CC(C)(C)OC(=O)NCCc1nc(N)no1 | 116 to 118
83 | Cc1ccc(C)c(C(C)Nc2ccc(C(=O)O)cc2C)c1 (centres undefined) | 211 to 213
84 | COc1ccc(Sc2ccc(N)cc2)cc1 | 93 to 95
85 | CCNC(=O)NCc1ccc(N)cc1 | 120 to 122
86 | COc1ccccc1NCCC(N)=O | 94 to 96
87 | CC(C)(C)NS(=O)(=O)c1cc(N)c(F)cc1F | 109 to 111
88 | CCOc1ccc(C(C)=O)cc1CN1CCCCC1 | 33 to 37
89 | O=C(O)C1CCCN(C(=O)Nc2ccccc2F)C1 (centres undefined) | 139 to 141
90 | O=C(Nc1ccc(F)cc1)Nc1cccc(O)c1 | 214 to 216
91 | CCCC(NC(C)=O)C(=O)O (centres undefined) | 114 to 116
92 | NC(=O)CNc1ccc(C(=O)O)cc1 | 249 to 251
93 | CCOC(=O)c1ccncc1N | 173 to 175
94 | COc1cccc2c1OCC(C(=O)O)=C2 | 239 to 241
95 | C#CCNC(=O)c1cccnc1Cl | 107 to 109
96 | CN(C)c1cccc(Cl)c1C=O | 26 to 28
97 | COc1ccc(C)cc1N1CC(C(=O)O)CC1=O (centres undefined) | 171 to 173
98 | O=C(O)C1CCN(C(=O)CCc2ccccc2)CC1 | 107 to 109
99 | CCC(=O)Nc1ccc(S(=O)(=O)Cl)cc1 | 109 to 111
100 | O=C(Cc1nc(CCl)cs1)Nc1ccccc1 | 115 to 117
101 | Nc1ccc(NCc2ccccn2)cc1 | 89 to 91
102 | Cc1ccc(-n2nc(C)c(C(=O)O)c2Cl)cc1Cl | 241 to 243
103 | N#Cc1ccc(NC(=O)CC2CCCC2)cc1 | 145 to 147
104 | Nc1ccccc1C(=O)N1CCCCC1 | 79 to 83
